# Data taken from paper PMC5071162 (ACS chemical neuroscience, 2016).
# Where two headings read alike, the source gives them in different places.
# Biological target: human GPR88 (Homo sapiens, UniProt Q9GZN0)
# Test: Lance cAMP assay using stable PPLS-HA-GPR88 CHO cells
# Type: cell-based
# Conditions: for agonist activity in words: qualitative SAR statement, Lance cAMP assay
# Sequence of human GPR88 (Q9GZN0 whole entry): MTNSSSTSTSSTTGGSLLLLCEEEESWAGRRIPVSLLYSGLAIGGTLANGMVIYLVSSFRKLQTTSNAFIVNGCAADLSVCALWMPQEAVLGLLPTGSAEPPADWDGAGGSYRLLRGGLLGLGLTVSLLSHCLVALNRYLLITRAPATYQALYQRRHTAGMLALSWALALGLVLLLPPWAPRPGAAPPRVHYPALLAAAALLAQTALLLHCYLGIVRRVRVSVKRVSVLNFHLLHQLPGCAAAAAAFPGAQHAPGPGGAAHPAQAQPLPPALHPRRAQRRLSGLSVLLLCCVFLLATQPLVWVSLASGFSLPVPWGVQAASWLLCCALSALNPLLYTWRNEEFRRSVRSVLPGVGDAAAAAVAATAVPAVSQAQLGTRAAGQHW
Compound,EC50 (EC50),further results
"(1R*,2R*)-2-(Pyridin-2-yl)cyclopropanecarboxylic Acid [(2S,3S)-2-Amino-3-methylpentyl]-(4′-phenoxyphenyl-4-yl)amide [4e]",–,agonist activity in words: deteriorated activity
"CCOC(=O)c1ccc(-c2ccc(N(C[C@@H](N)[C@@H](C)CC)C(=O)[C@@H]3C[C@H]3c3ccccn3)cc2)cc1 (relative stereo) [5u, (1R*,2R*)-2-(Pyridin-2-yl)cyclopropanecarboxylic Acid [(2S,3S)-2-Amino-3-methylpentyl]-(4′-ethoxycarbonylbiphenyl-4-yl)amide]",257 nM,–
"(1R*,2R*)-2-(Pyridin-2-yl)cyclopropanecarboxylic Acid [(2S,3S)-2-Amino-3-methylpentyl]-(4′-phenethylphenyl-4-yl)amide [4g]",–,agonist activity in words: deteriorated activity
"CC[C@H](C)[C@H](N)CN(C(=O)[C@@H]1C[C@H]1c1ccccn1)c1ccc(-c2ccc(N)cc2)cc1 (relative stereo) [5w, (1R*,2R*)-2-(Pyridin-2-yl)cyclopropanecarboxylic Acid [(2S,3S)-2-Amino-3-methylpentyl]-(4′-aminobiphenyl-4-yl)amide]",1120 nM,agonist activity in words: significant decrease in activity
"CC[C@H](C)[C@H](N)CN(C(=O)[C@@H]1C[C@H]1c1ccccn1)c1ccc(-c2ccc(C(F)(F)F)cc2)cc1 (relative stereo) [5b, (1R*,2R*)-2-(Pyridin-2-yl)cyclopropanecarboxylic Acid [(2S,3S)-2-Amino-3-methylpentyl]-(4′-trifluoromethylbiphenyl-4-yl)amide]",187 nM,–
"CC[C@H](C)[C@H](N)CN(C(=O)[C@@H]1C[C@H]1c1ccccn1)c1ccc(-c2ccc(Cl)cc2)cc1 (relative stereo) [5q, (1R*,2R*)-2-(Pyridin-2-yl)cyclopropanecarboxylic Acid [(2S,3S)-2-Amino-3-methylpentyl]-(4′-chlorobiphenyl-4-yl)amide]",213 nM,–
"CC[C@H](C)[C@H](N)CN(C(=O)[C@@H]1C[C@H]1c1ccccn1)c1ccc(-c2ccc(OC(C)C)cc2)cc1 (relative stereo) [5m, (1R*,2R*)-2-(Pyridin-2-yl)cyclopropanecarboxylic Acid [(2S,3S)-2-Amino-3-methylpentyl]-(4′-isopropoxybiphenyl-4-yl)amide]",–,EC50: 77 nM
"CC[C@H](C)[C@H](N)CN(C(=O)[C@@H]1C[C@H]1c1ccccn1)c1ccc(-c2ccc(C#N)cc2)cc1 (relative stereo) [5r, (1R*,2R*)-2-(Pyridin-2-yl)cyclopropanecarboxylic Acid [(2S,3S)-2-Amino-3-methylpentyl]-(4′-cyanobiphenyl-4-yl)amide]",197 nM,–
"CC[C@H](C)[C@H](N)CN(C(=O)[C@@H]1C[C@H]1c1ccccn1)c1ccc(-c2ccc(C(=O)N(C)C)cc2)cc1 (relative stereo) [5aa, (1R*,2R*)-2-(Pyridin-2-yl)cyclopropanecarboxylic Acid [(2S,3S)-2-Amino-3-methylpentyl]-[4′-(dimethylcarbamoyl)biphenyl-4-yl]-amide]",3320 nM,agonist activity in words: least activity in the series
"CC[C@H](C)[C@H](N)CN(C(=O)[C@@H]1C[C@H]1c1ccccn1)c1ccc(-c2ccc(O)cc2)cc1 (relative stereo) [5v, (1R*,2R*)-2-(Pyridin-2-yl)cyclopropanecarboxylic Acid [(2S,3S)-2-Amino-3-methylpentyl]-(4′-hydroxybiphenyl-4-yl)amide]",2860 nM,agonist activity in words: significant decrease in activity
"CC[C@H](C)[C@H](N)CN(C(=O)[C@@H]1C[C@H]1c1ccccn1)c1ccc(-c2ccc(C(C)(C)C)cc2)cc1 (relative stereo) [5f, (1R*,2R*)-2-(Pyridin-2-yl)cyclopropanecarboxylic Acid [(2S,3S)-2-Amino-3-methylpentyl]-(4′-tert-butylbiphenyl-4-yl)amide]",515 nM,–
"CC[C@H](C)[C@H](N)CN(C(=O)[C@@H]1C[C@H]1c1ccccn1)c1ccc(-c2ccc(C3CCCCC3)cc2)cc1 (relative stereo) [5h, (1R*,2R*)-2-(Pyridin-2-yl)cyclopropanecarboxylic Acid [(2S,3S)-2-Amino-3-methylpentyl]-(4′-cyclohexylbiphenyl-4-yl)amide]",176 nM,EC50 (pEC50): 174 nM
"CCc1ccc(-c2ccc(N(C[C@@H](N)[C@@H](C)CC)C(=O)[C@@H]3C[C@H]3c3ccccn3)cc2)cc1 (relative stereo) [5c, (1R*,2R*)-2-(Pyridin-2-yl)cyclopropanecarboxylic Acid [(2S,3S)-2-Amino-3-methylpentyl]-(4′-ethylbiphenyl-4-yl)amide]",85 nM,EC50 (EC50 (nM)): 85 nM
"CCOc1ccc(-c2ccc(N(C[C@@H](N)[C@@H](C)CC)C(=O)[C@@H]3C[C@H]3c3ccccn3)cc2)cc1 (relative stereo) [5l, (1R*,2R*)-2-(Pyridin-2-yl)cyclopropanecarboxylic Acid [(2S,3S)-2-Amino-3-methylpentyl]-(4′-ethoxybiphenyl-4-yl)amide]",82 nM,EC50 (EC50 (nM)): 82 nM
"CC[C@H](C)[C@H](N)CN(C(=O)[C@@H]1C[C@H]1c1ccccn1)c1ccc(-c2ccc(OC)c(OC)c2)cc1 (relative stereo) [5n, (1R*,2R*)-2-(Pyridin-2-yl)cyclopropanecarboxylic Acid [(2S,3S)-2-Amino-3-methylpentyl]-(3′,4′-dimethoxybiphenyl-4-yl)amide]",917 nM,fold loss of activity: approximately 10 fold
"CCCCCCc1ccc(-c2ccc(N(C[C@@H](N)[C@@H](C)CC)C(=O)[C@@H]3C[C@H]3c3ccccn3)cc2)cc1 (relative stereo) [5g, (1R*,2R*)-2-(Pyridin-2-yl)cyclopropanecarboxylic Acid [(2S,3S)-2-Amino-3-methylpentyl]-(4′-hexylbiphenyl-4-yl)amide]",136 nM,–
"CC[C@H](C)[C@H](N)CN(C(=O)[C@@H]1C[C@H]1c1ccccn1)c1ccc(-c2ccc(C(N)=O)cc2)cc1 (relative stereo) [5z, (1R*,2R*)-2-(Pyridin-2-yl)cyclopropanecarboxylic Acid [(2S,3S)-2-Amino-3-methylpentyl]-(4′-carbamoylbiphenyl-4-yl)amide]",–,agonist activity in words: least activity in the series
"CC[C@H](C)[C@H](N)CN(C(=O)[C@@H]1C[C@H]1c1ccccn1)c1ccc(-c2ccc(C(C)C)cc2)cc1 (relative stereo) [5d, (1R*,2R*)-2-(Pyridin-2-yl)cyclopropanecarboxylic Acid [(2S,3S)-2-Amino-3-methylpentyl]-(4′-isopropylbiphenyl-4-yl)amide]",260 nM,–
"CC[C@H](C)[C@H](N)CN(C(=O)[C@@H]1C[C@H]1c1ccccn1)c1ccc(-c2ccc(CC(C)C)cc2)cc1 (relative stereo) [5e, (1R*,2R*)-2-(Pyridin-2-yl)cyclopropanecarboxylic Acid [(2S,3S)-2-Amino-3-methylpentyl]-(4′-isobutylbiphenyl-4-yl)amide]",271 nM,–
"CC[C@H](C)[C@H](N)CN(C(=O)[C@@H]1C[C@H]1c1ccccn1)c1ccc(-c2ccc(C)cc2)cc1 (relative stereo) [5a, (1R*,2R*)-2-(Pyridin-2-yl)cyclopropanecarboxylic Acid [(2S,3S)-2-Amino-3-methylpentyl]-(4′-methylbiphenyl-4-yl)amide]",104 nM,EC50 (EC50 (nM)): 104 nM
"CC[C@H](C)[C@H](N)CN(C(=O)[C@@H]1C[C@H]1c1ccccn1)c1ccc(-c2ccc(N(C)C)cc2)cc1 (relative stereo) [5x, (1R*,2R*)-2-(Pyridin-2-yl)cyclopropanecarboxylic Acid [(2S,3S)-2-Amino-3-methylpentyl]-[4′-(dimethylamino)biphenyl-4-yl]amide]",294 nM,–
"CC[C@H](C)[C@H](N)CN(C(=O)[C@@H]1C[C@H]1c1ccccn1)c1ccc(-c2ccc(C(C)=O)cc2)cc1 (relative stereo) [5t, (1R*,2R*)-2-(Pyridin-2-yl)cyclopropanecarboxylic Acid [(2S,3S)-2-Amino-3-methylpentyl]-(4′-acetylbiphenyl-4-yl)amide]",351 nM,–
"(1R*,2R*)-2-(Pyridin-2-yl)cyclopropanecarboxylic Acid [(2S,3S)-2-Amino-3-methylpentyl]-(4′-benzylphenyl-4-yl)amide [4f]",–,agonist activity in words: deteriorated activity
"CC[C@H](C)[C@H](N)CN(C(=O)[C@@H]1C[C@H]1c1ccccn1)c1ccc(-c2ccc(NC(C)=O)cc2)cc1 (relative stereo) [5y, (1R*,2R*)-2-(Pyridin-2-yl)cyclopropanecarboxylic Acid [(2S,3S)-2-Amino-3-methylpentyl]-(4′-acetamidobiphenyl-4-yl)amide]",–,agonist activity in words: least activity in the series
"CC[C@H](C)[C@H](N)CN(C(=O)[C@@H]1C[C@H]1c1ccccn1)c1ccc(-c2ccc3c(c2)OCO3)cc1 (relative stereo) [5o, (1R*,2R*)-2-(Pyridin-2-yl)cyclopropanecarboxylic Acid [(2S,3S)-2-Amino-3-methylpentyl]-(3′,4′-methylenedioxybiphenyl-4-yl)amide]",204 nM,EC50 (EC50 (nM)): 204 nM
"CC[C@H](C)[C@H](N)CN(C(=O)[C@@H]1C[C@H]1c1ccccn1)c1ccc(-c2ccc(-c3ccccc3)cc2)cc1 (relative stereo) [5i, (1R*,2R*)-2-(Pyridin-2-yl)cyclopropanecarboxylic Acid [(2S,3S)-2-Amino-3-methylpentyl]-(4′-phenylbiphenyl-4-yl)amide]",289 nM,–
"CC[C@H](C)[C@H](N)CN(C(=O)[C@@H]1C[C@H]1c1ccccn1)c1ccc(-c2ccccc2)cc1 (relative stereo) [4d, (1R*,2R*)-2-(Pyridin-2-yl)cyclopropanecarboxylic Acid [(2S,3S)-2-Amino-3-methylpentyl]-(biphenyl-4-yl)amide]",–,EC50: 283 nM
"CC[C@H](C)[C@H](N)CN(C(=O)[C@@H]1C[C@H]1c1ccccn1)c1ccc(-c2ccc([N+](=O)[O-])cc2)cc1 (relative stereo) [5s, (1R*,2R*)-2-(Pyridin-2-yl)cyclopropanecarboxylic Acid [(2S,3S)-2-Amino-3-methylpentyl]-(4′-nitrobiphenyl-4-yl)amide]",274 nM,–
